# pKi: −log10 of the molar value. Where a name gives a salt, the structure may show the parent alone.
# Biological target: T1, recombinant human GSK3β (Homo sapiens, UniProt P49841)
# T1 construct: purchased Dundee University, UK
# Assay: GSK3β Scintillation Proximity Assay (ATP competition)
# Format: biochemical
# Conditions: SPA, 1 μM ATP, Km of ATP 20 μM used to calculate Ki
# Method: Determination of ATP Competition in Scintillation Proximity GSK3β Assay.
# GSK3β Scintillation Proximity Assay.
# The competition experiments were carried out in duplicate with 10 different concentrations of the inhibitors in clear-bottom microtiter plates (Wallac, Finland). A biotinylated peptide substrate, Biotin-Ala-Ala-Glu-Glu-Leu-Asp-Ser-Arg-Ala-Gly-Ser(PO3H2)-Pro-Gln-Leu (AstraZeneca, Lund), was added at a final concentration of 1 μM in an assay buffer containing 1 mU recombinant human GSK3β (Dundee University, UK), 12 mM morpholinepropanesulfonic acid (MOPS), pH 7.0, 0.3 mM EDTA, 0.01% β-mercaptorethanol, 0.004% Brij 35 (a […] detergent), 0.5% glycerol and 0.5 μg BSA/25 μl. The reaction was initiated by the addition of 0.04 μCi [γ-^33P]ATP (Amersham, UK) and unlabelled ATP at a final concentration of 1 μM and assay volume of 25 μL. After incubation for 20 minutes at room temperature, each reaction was terminated by the addition of 25 μl stop solution containing 5 mM EDTA, 50 μM ATP, 0.1% Triton X-100 and 0.25 mg streptavidin coated Scintillation Proximity Assay (SPA) beads (Amersham, UK). After 6 hours the radioactivity was determined in a liquid scintillation counter (1450 MicroBeta Trilux, Wallac). The inhibition curves were analysed by non-linear regression using GraphPad Prism, USA. The Km value of ATP for GSK3β, used to calculate the inhibition constants (Ki) of the various compounds, was 20 μM.
# T1 sequence (P49841 whole entry): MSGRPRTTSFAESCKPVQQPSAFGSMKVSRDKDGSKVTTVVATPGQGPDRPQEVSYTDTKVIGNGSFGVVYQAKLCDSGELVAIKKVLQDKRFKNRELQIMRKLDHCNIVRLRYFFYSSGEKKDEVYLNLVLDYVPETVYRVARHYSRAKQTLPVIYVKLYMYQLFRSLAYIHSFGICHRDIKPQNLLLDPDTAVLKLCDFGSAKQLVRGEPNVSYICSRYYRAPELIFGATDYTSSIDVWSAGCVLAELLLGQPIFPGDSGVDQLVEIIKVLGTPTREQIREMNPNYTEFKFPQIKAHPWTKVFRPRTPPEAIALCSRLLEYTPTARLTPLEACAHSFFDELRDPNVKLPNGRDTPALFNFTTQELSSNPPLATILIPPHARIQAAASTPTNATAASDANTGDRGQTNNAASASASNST
row,pKi,Compound
1,8.89,"Cc1ncc(-c2nc(Nc3ccc(C(=O)c4ccccn4)cc3)ncc2F)n1C(C)C [Example 2, (4-{[5-Fluoro-4-(1-isopropyl-2-methyl-1H-imidazol-5-yl)pyrimidin-2-yl]amino}phenyl)(pyridin-2-yl)methanone hydrochloride]"
2,7.62,"Cc1cc(S(=O)(=O)N2CCN(C)CC2)ccc1Nc1ncc(F)c(-c2cnc(C)n2C(C)C)n1 [Example 5, 5-Fluoro-4-(1-isopropyl-2-methyl-1H-imidazol-5-yl)-N-{2-methyl-4-[(4-methylpiperazin-1-yl)sulfonyl]phenyl}pyrimidin-2-amine hydrochloride]"
3,7.60,"COc1cc(Nc2ncc(F)c(-c3cnc(C)n3C(C)C)n2)ccc1C(=O)N1CCN(C)CC1 [Example 11, 5-Fluoro-4-(1-isopropyl-2-methyl-1H-imidazol-5-yl)-N-{3-methoxy-4-[(4-methylpiperazin-1-yl)carbonyl]phenyl}pyrimidin-2-amine hydrochloride]"
4,8.42,"Cc1ncc(-c2nc(Nc3ccc(C(=O)N4CCN(C)CC4)cc3)ncc2F)n1C(C)C [Example 13, 5-Fluoro-4-(1-isopropyl-2-methyl-1H-imidazol-5-yl)-N-{4-[(4-methylpiperazin-1-yl)carbonyl]phenyl}pyrimidin-2-amine hydrochloride]"

# From patent US20080214560A1, “Use of Pyrimidine Derivatives in the Manufacture of a Medicament for Prevention and/or Treatment of Alzheimer's Disease” (AstraZeneca AB, priority 2005, published 2008)
